{"source": "patent US20030059843A1", "about": "“High throughput screening of ligand binding to macromolecules using high resolution powder diffraction” (priority 2001, published 2003)", "target": "T1, Chicken egg lysozyme (Gallus gallus, UniProt P00698)", "T1 construct": "Chicken egg lysozyme (EC 3.2.1.17, FisherBiotech, 3X crystallized, lot Nos. 995417-12 and 996924-12); purchased FisherBiotech; host or cells: chicken egg (natural source)", "T1 sequence (P00698 19-147)": "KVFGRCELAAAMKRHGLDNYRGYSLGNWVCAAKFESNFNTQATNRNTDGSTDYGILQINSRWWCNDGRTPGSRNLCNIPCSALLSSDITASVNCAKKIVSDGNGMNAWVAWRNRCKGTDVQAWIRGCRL", "assay": "Ligand binding to polycrystalline lysozyme detected by high resolution X-ray powder diffraction", "excerpt": "The screening method of the present invention can be as follows. Two samples of polycrystalline material are produced as slurries. By “slurry” is meant, for example, a suspension of microcrystals of a macromolecule or macromolecule-ligand complex in a liquid. One of the samples includes the target protein or macromolecule and a suitable solvent. The other of the samples includes the target protein or macromolecule, one or more selected ligands and the same solvent as in the first sample. High resolution powder diffraction patterns are obtained for the polycrystalline macromolecule material in each sample. The patterns from the first and second samples are then compared to see if there is any discernable difference between the two sets of diffraction patterns beyond expected or measured experimental error or variation. When there is such a discernable difference between the two sets of diffraction patterns, that is a positive indication for the formation of a complex between the target protein or macromolecule and one or more of the selected ligands. […] In another manner, the pattern of the first sample can be inspected or analyzed to determine the positions of the diffraction peaks from the unbound form of the target protein or macromolecule, while the pattern of the second sample can be inspected or analyzed to determine the positions of the diffraction peaks from the target protein or macromolecule in the presence of the one or more selected ligands. Differences in such diffraction peaks can then be used to determine if there is a difference indicating binding of a ligand. This process is readily automated via computerized data processing routines.\nChicken egg lysozyme (EC 3.2.1.17, FisherBiotech, 3X crystallized, lot Nos. 995417-12 and 996924-12) and N-acetylglucosamine (NAG, ICN Biomedicals, Inc. lot No. R9745), pH 6.0 0.05M Na2HPO4/KH2PO4 buffer (Fisher Sci.), pH 5.0 0.05M KHphthalate/NaOH buffer (Hydrion™, Aldrich Chem.) and NaCl (“Certified for Biological Use”, Fisher Sci.) were used as received. In a typical sample preparation, a polycrystalline slurry was made by combining ˜20 mg lysozyme (1.4 μmol), about 10 mg of NAG (45 μmol) and 200 μl of 0.5M NaCl pH 6.0 buffer with an agate mortar and pestle. Polycrystalline precipitate formed within a few seconds. The slurry was loaded into a 1.5 mm diameter glass capillary, and centrifuged to pack the slurry. Excess mother liquor was removed and the capillary flame sealed to prevent subsequent solvent evaporation. In a similar way, a polycrystalline sample of unbound lysozyme in pH 6.0 0.5M NaCl buffer was prepared. Similar samples with pH 5.0 0.5M NaCl buffer were also prepared. Samples were about 8 mm long. As each sample was prepared, X-ray powder diffraction data were immediately collected at room temperature (23° C.) on beam line X3bl at the National Synchrotron Light Source, Brookhaven National Laboratory, equipped with a double Si(111) monochromator and a Ge(111) analyser; the sample was spun during data collection to ensure good powder averaging.", "note": "“Also recorded” adds a separate entry of the source."}
{"smiles": "CC(=O)N[C@H]1C(O)O[C@H](CO)[C@@H](O)[C@@H]1O", "note": "(stereo partly shown) [NAG, N-acetylglucosamine]", "values": [{"measurement": "lattice parameter a smaller compared to pure lysozyme from the same solvent", "setting": "pH 5.0 0.5M NaCl", "result": 0.06, "unit": "%"}, {"measurement": "lattice parameter c larger compared to pure lysozyme from the same solvent", "setting": "pH 5.0 0.5M NaCl", "result": 0.15, "unit": "%"}, {"measurement": "lattice parameter a smaller compared to apo-protein precipitated from the same buffer", "setting": "pH 6.0 0.5M NaCl", "result": 0.21, "unit": "%"}, {"measurement": "lattice parameter c larger compared to apo-protein precipitated from the same buffer", "setting": "pH 6.0 0.5M NaCl", "result": 0.49, "unit": "%"}, {"measurement": "change in powder diffraction pattern versus unbound lysozyme (complex formation)", "setting": "slurry from pH 5.0 0.5M NaCl buffer, FIG. 2", "result": "no visible change in the powder pattern; also recorded: no changes evident"}, {"measurement": "change in powder diffraction pattern versus unbound lysozyme (complex formation)", "setting": "slurry from pH 6.0 0.5M NaCl buffer, FIG. 1", "result": "a structural modification has occurred associated with the formation of a NAG/lysozyme complex"}, {"measurement": "change in powder diffraction pattern versus unbound lysozyme (complex formation)", "setting": "slurry from pH 6.0 0.5M NaCl buffer, FIG. 1, listed as α-NAG", "result": "easily visible changes in the powder diffraction patterns"}]}
